# Measurements: US11801256B2, “Antidepressant-psilocybin co-treatment to assist psychotherapy” (Universitätsspital Basel, priority 2021, dated 2023)
# How the values were obtained:
# [1] = Plasma drug concentrations and pharmacokinetic analyses; format: in vivo, human; conditions: for elimination half-life / mean time to peak concentrations: psilocin glucuronide after 25 mg psilocybin
# Description: The blood samples were immediately centrifuged, and the plasma was subsequently stored at −80° C. until analysis.
# This allows to determine the concentrations of unconjugated psilocin and of psilocin glucuronide which corresponds to the difference between samples that were incubated with and without glucuronidase.
# healthy subjects [2] = test: Adverse effects (list of complaints) and adverse events; format: in vivo, human
# Description: (§1) Treatment order was random and counterbalanced.
# Adverse effects (list of complaints): The list of complaints (LC) consists of 66 items offering a global score measuring physical and general discomfort (Zerssen, 1976). This scale yields a total adverse effects score and reliably measures physical and general discomfort. The LC list was administered 7 hours after administration of the drug with reference to complaints throughout the entire session.
# healthy subjects [3] = test: Subjective effects, visual analog scales (VAS), clinical study; format: in vivo, human; conditions: 25 mg psilocybin
# Description: as §1
# Study procedures: Subjects took part in a 2-hour screening session, two 9.5-hour test sessions where the psilocybin was administered and a 1-hour end-of-study visit. The subjects were informed about the study both verbally and by the approved written consent form regarding the altered state of consciousness, the study procedures and associated risks. The investigator and the subject both personally signed and dated the consent form as confirmation of consent. Subjects were screened using a semi-structured clinical interview for DSM-IV (Diagnostic and Statistical Manual Version 4) (Wittchen et al., 1997) to exclude those with a personal or family (first-degree relative) axis I major psychiatric disorder (acute or past) or a history of illicit drug dependence. Axis I major psychiatric disorders included also addiction disorders. The sessions were conducted in a calm standard hospital room. Only one research subject and one investigator were present during the test sessions. The test sessions began at 9 AM. The subjects then underwent baseline measurements. […] Psilocybin was administered at 11:00 AM. The outcome measures were repeatedly assessed for 7 hours. The subjects were under constant supervision by an investigator until 6 PM. Thus, the subjects were never alone during the 7 hours after drug administration. The subjects were sent home at 6:30 PM.
# Subjective Effects Questionnaire (Visual Analog Scales, VAS): VAS was repeatedly used to assess subjective alterations in consciousness over time. Single scales were presented as 100 mm horizontal lines marked with “not at all” on the left and “extremely” on the right. The following VAS items were used: “any drug effect”, “good drug effect”, “bad drug effect”, “drug liking”, “drug high”, “stimulated”, “fear”, “happy”, “content”, “trust”, “talkative”, “perception of time”, “open”, “concentration”, “speed of thinking”, “feeling close to others”, “wanting to be hugged”, “wanting to hug someone”, “desire to be alone”, “desire to be with others”, and “ego dissolution”. The VASs were presented as 100-mm horizontal lines (0-100%), marked from “not at all” on the left to “extremely” on the right. Some VASs were bidirectional (±50%). Marked from “not at all” on the left (−50), to “normal” in the middle (0), to “extremely” on the right (+50).
# The criterion for significance was p<0.05.
# healthy subjects [4] = test: Autonomic measures (blood pressure, heart rate, body temperature, pupil size); conditions: 25 mg psilocybin, healthy subjects
# Description: Study design: A double-blind, cross-over design was used with two conditions. […] 2) Pretreatment with placebo for 14 days with the last administration on the study day and administration of 25 mg psilocybin 2 hours later. Treatment order was random and counterbalanced. Between the 14 days pretreatment and the study day, there were at least 2 days washout until the next pretreatment phase began.
# Autonomic measures: Blood pressure, heart rate, and body temperature were recorded at baseline and repeatedly throughout the session. Blood pressure (systolic and diastolic) and heart rate were measured with an automatic oscillometric device. Body temperature was measured with an ear thermometer as previously described in detail (Hysek et al., 2010). Measures were taken before and at 0, 0.25, 0.5, 0.75, 1, 1.5, 2, 2.5, 3, 4, 5, 6 and 7 hours after psilocybin administration.
# Data analysis: Peak (Emax and/or Emin) or peak change from baseline (ΔEmax) values were determined for repeated measures. The values were then analyzed using paired T-tests using Statistica 12 software (StatSoft, Tulsa, OK, USA). The criterion for significance was p<0.05.
# healthy subjects [5] = test: QTc time; format: in vivo, human; conditions: 2.5 hours after psilocybin administration compared with 1 hour before
# From the text: Exclusion criteria: Chronic or acute medical condition, including a history of seizures. Current or previous major psychiatric disorder (e.g. psychotic disorders, mania/hypomania, anxiety disorders, and substance abuse). Psychotic disorder in first-degree relatives, not including psychotic disorders secondary to an apparent medical reason, e.g. brain injury, dementia, or lesions of the brain. Illicit substance use (with the exception of cannabis) more than 10 times or any time within the previous two months. History of an angle closure glaucoma. Pregnant or nursing women. Participation in another clinical trial (currently or within the last 30 days). […] A corrected QT time (QTc), calculated by Bazett's formula, of over 450 milliseconds in males and over 470 milliseconds in females. Tobacco smoking (>10 cigarettes/day). Consumption of alcoholic drinks (>10 drinks/week). Bodyweight <45 kg.
# [6] = after psilocybin, after escitalopram pretreatment
# [7] = after psilocybin, after placebo pretreatment
# [8] = after escitalopram pretreatment
compound,measurement,setting,value
CN(C)CCc1c[nH]c2cccc(O)c12 [psilocin],metabolism of psilocin,[1]; after 25 mg psilocybin,metabolized to approximately similar extents to inactive 4-HIAA and psilocin-glucuronide
same,half-life,"[1]; human, plasma, oral, non-glucuronidated (nonconjugated) psilocin after 25 mg psilocybin, read-out: elimination half-life (converted)",2 h
same,mean time to maximal plasma concentration,[1]; non-glucuronidated (nonconjugated) psilocin after 25 mg psilocybin,2 h
same,conjugation (glucuronidation) in plasma,[1]; samples analyzed with and without glucuronidase,A large proportion of psilocin underwent glucuronidation
"CN(C)CCc1c[nH]c2cccc(OP(=O)(O)O)c12 [Psilocybin, psilocybin]",type and amount of adverse events following psilocybin administration,healthy subjects [2]; after escitalopram and placebo pretreatment,comparable
same,adverse aftereffects: abdominal bloating,healthy subjects [2]; [6],one
same,adverse aftereffects: flash backs,healthy subjects [2]; [6],one
same,adverse aftereffects: headaches,healthy subjects [2]; [6],six
same,adverse aftereffects: lack of energy,healthy subjects [2]; [6],one
same,adverse aftereffects: nausea,healthy subjects [2]; [6],one
same,adverse aftereffects: flash backs,healthy subjects [2]; [7],one
same,adverse aftereffects: headaches,healthy subjects [2]; [7],six
same,adverse aftereffects: nausea,healthy subjects [2]; [7],one
same,adverse aftereffects: vasovagal syncope,healthy subjects [2]; [7],one
same,bad drug effects,healthy subjects [3]; healthy subjects,only moderate
same,anxiety,healthy subjects [3]; healthy subjects (FIG. 6B),only moderate
same,body temperature,healthy subjects [4],moderately increased
same,diastolic blood pressure,healthy subjects [4],moderately increased
same,heart rate,healthy subjects [4],changed only minimally
same,pupil size,healthy subjects [4],moderately increased
same,rate-pressure product,healthy subjects [4],moderately increased
same,systolic blood pressure,healthy subjects [4],moderately increased
same,QTc times,healthy subjects [5],did not increase
CN(C)CCc1c[nH]c2cccc(O[C@@H]3O[C@H](C(=O)O)[C@@H](O)[C@H](O)[C@H]3O)c12 [psilocin glucuronide],elimination half-life,[1]; [8],5.2 h
same,mean time to peak concentrations,[1]; [8],3.74 h
same,elimination half-life,"[1]; after escitalopram pretreatment, listed as Glucuronidated psilocin",4.5 h
same,elimination half-life,[1]; after placebo pretreatment,4.5 h
same,mean time to peak concentrations,[1]; after placebo pretreatment,3.8 h
same,elimination half-life,"[1]; after placebo pretreatment, listed as Glucuronidated psilocin",4.1 h
same,mean time to peak concentrations,[1]; pretreatments not separated,3.2 to 3.4 h
"O=C(O)Cc1c[nH]c2cccc(O)c12 [4-HIAA, 4-hydroxyindole-3-acetic acid]",increase in metabolite concentrations over time,[1]; 4-HIAA compared to the glucuronide,faster
